Data reported in patent US7022699B2, “Cyclohexenyl phenyl diazepines vasopressin and oxytocin receptor modulators” (Wyeth, priority 2001, dated 2006).

How the values were obtained:
human oxytocin receptor = target: T1, human oxytocin receptor (Homo sapiens, UniProt P30559); assay: Oxytocin binding in CHO cell membranes expressing human oxytocin receptors ([3H]oxytocin); details: for inhibition at 0.1 µM: 100 nM, values without parentheses, read-out: OT % inhibition @ 100 nM; for IC50: values in parentheses, read-out: OT (IC50)
T1 construct: host or cells: CHO cells, stably transfected (pcDNA3.1 vector); membranes
T1 sequence (P30559 1-389): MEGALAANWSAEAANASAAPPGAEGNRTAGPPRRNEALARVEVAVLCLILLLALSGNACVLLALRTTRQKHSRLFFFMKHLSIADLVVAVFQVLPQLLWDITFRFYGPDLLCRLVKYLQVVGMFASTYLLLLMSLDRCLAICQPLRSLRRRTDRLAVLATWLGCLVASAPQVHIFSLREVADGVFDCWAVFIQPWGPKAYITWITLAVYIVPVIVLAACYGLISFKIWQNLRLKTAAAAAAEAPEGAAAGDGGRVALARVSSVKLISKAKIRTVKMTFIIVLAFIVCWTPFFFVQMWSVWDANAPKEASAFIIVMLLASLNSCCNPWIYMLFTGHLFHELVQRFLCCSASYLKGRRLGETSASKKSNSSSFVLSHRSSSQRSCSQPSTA
Excerpt: Oxytocin Binding in Chinese Hamster Ovary Cell Membranes Expressing Human Oxytocin Receptors
Chinese Hamster Ovary (CHO) cells stably transfected with the human oxytocin (cf. Tanizawa et al., U.S. Pat. No. 5,466,584 (1995) to Rohto Pharmaceutical Co. Ltd., Osaka, Japan) were obtained from M. Thibonnier, Case Western Reserve University School of Medicine, Cleveland, Ohio. A. Passaging and Amplification of Cells: CHO cells transfected with the human oxytocin receptors obtained from M. Thibonnier (pcDNA3.1 vector) are allowed to grow to confluency (approx. >90%) in T-150 flasks under sterile conditions, in a cell culture medium of F-12 Nutrient Mixture (HAM) with L-glutamine (Gibco Cat. #11765-054) containing 15 mM HEPES (Gibco Cat. #15630-080), 1% antibiotic/antimycotic (add 5 mL 100×, Gibco Cat. #15240-062 per 500 mL F-12), 400 μg/mL of Geneticin (add 4 mL of 50 mg/mL per 500 mL F-12) and 10% Fetal Bovine Serum (Qualified, heat inactivated, Gibco Cat. #16140-063). The medium is removed by aspiration and the cells are washed with 10 mL of Hank's Balanced Salt solution (Gibco Cat. #14175-095). The salt solution is removed by aspiration and the cells trypsinized with 5 mL of trypsin-EDTA (0.05% trypsin, 0.53 mM EDTA-4Na, Gibco Cat. #25300-070) for 1 min. The trypsin is removed by aspiration and the cells dislodged by tapping. Cell Culture medium (e.g. 30 mL for 1:30 split) is immediately added and mixed well to inactivate trypsin. 1 mL of detached cells is added to new culture flasks containing fresh Cell Culture medium (e.g. into 25 mL per T-150 flask), and mixed gently. The cells are incubated at 37° C. in 5% CO2. The medium is changed at 3 to 4 days interval (or as appropriate). The cells grow to confluency (approx. >75%–95%) within 7–8 days. All steps are done under sterile conditions. B. Membrane Preparation: The cells are washed twice gently with Hank's Balanced Salt solution (e.g., use 10 mL per T-150 flask). The excess is removed and the cells bathed for 15–30 min. in an enzyme-free Cell Dissociation Buffer (e.g., use 8 mL Hank's Based, Gibco Cat. #13150-016 per T-150 flask) until cells are loosened. The contents are transferred to centrifuge tubes (50 mL size) kept in ice bath. All subsequent steps are done at 4° C. The tubes are centrifuged at 300×g for 15 min (1380 rpm on SORVAL, Model RT6000D, using rotor for 50 mL tubes). The supernatant is discarded and the cells suspended in homogenizing buffer (10 mM Tris-HCl containing 0.25 M sucrose and 1 mM EDTA, pH 7.4) ensuring that the volume of the buffer is about ten times the volume of the cell pellet. The cells are pooled into a centrifuge tube (50 mL) and homogenized with Polytron at setting 6 for 10 sec. The homogenate is transferred into a Potter-Elvjehm homogenizer and homogenized with 3 strokes. The homogenate is centrifuged at 1500×g for 10 min at 4° C. (3100 rpm using SORVAL, model RT6000D, using rotor for 50 mL tubes). The pellet. is discarded. The supernatant is centrifuged at 100,000×g for 60 min. at 4° C. (Beckman L8-80M ultracentrifuge; spin at 37,500 rpm with rotor type 70 Ti for 50 mL tubes; 38,000 rpm with type 80Ti for 15 mL tubes; or 35,800 rpm with rotor type 45Ti). The supernantant is discarded and the pellet suspended in 3 to 4 mL of Tris buffer (50 mM TRIS-HCl, pH 7.4). The protein content is estimated by the Bradford or Lowry method. The volume of the membrane suspension is adjusted with the membrane buffer (50 mM Tris-HCl containing 0.1% BSA and 0.1 mM PMSF) to give 3.0 mg/mL (or as appropriate) of protein. The membranes are aliquoted and stored at −70° C. C. Radioligand Binding Assay: In wells of a 96-well format microliter plate, is added 90, 110 or 130 μL (to make up a final volume of 200 μL) of assay buffer containing 50 mM of Tris-HCl (pH 7.4), […], 1 mg % aprotinin, 1 mg % leupeptin, 2 mg % 1,10-phenanthroline, 10 mg % trypsin inhibitor, and 0.1 mM PMSF. The inhibitors are added on the day of the experiment. […]

Structure (SMILES)	melting point [°C]	inhibition at 0.1 µM (human oxytocin receptor) [%]	IC50 (human oxytocin receptor) [µM]
O=C1C=C(c2ccc(C(=O)N3Cc4cccn4Cc4ccccc43)cc2)CCC1 [Example 24, 3-[4-(10,11-Dihydro-5H-pyrrolo[2,1-c][1,4]benzodiazepine-10-carbonyl)-phenyl]-cyclohex-2-en-1-one]	205 to 207	70	–
O=C(c1ccc(C2=CCCc3ccccc32)cc1Cl)N1Cc2cccn2Cc2ccccc21 [Example 11, (10,11-Dihydro-5H-pyrrolo[2,1-c][1,4]benzodiazepin-10-yl)-[2-chloro-4-(3,4-dihydro-naphthalen-1-yl)-phenyl]-methanone]	174 to 176	65	–
COc1cc(C2=CCCc3ccccc32)c(Cl)cc1C(=O)N1Cc2cccn2Cc2ccccc21 [Example 8, 10-[5-Chloro-4-(3,4-dihydro-naphthalen-1-yl)-2-methoxybenzoyl]-10,11-dihydro-5H-pyrrolo[2,1-c][1,4]benzodiazepine]	209 to 210	93	–
CC1=C(c2ccc(C(=O)N3Cc4cccn4Cc4ccccc43)cc2)CCCC1 [Example 7, (10,11-Dihydro-5H-pyrrolo[2,1-c][1,4]benzodiazepin-10-yl)-[4-(2-methyl-cyclohex-1-en-1-yl)-phenyl]-methanone]	119 to 120	–	0.00906
CC1=C(c2ccc(C(=O)N3Cc4cccn4Cc4ccccc43)cc2)CCCC1=O [Example 26, 3-[4-(10,11-Dihydro-5H-pyrrolo[2,1-c][1,4]benzodiazepine-10-carbonyl)-phenyl]-2-methyl-cyclohex-2-en-1-one]	95 to 97	80	–
CC1(C)C=C(c2ccc(C(=O)N3Cc4cccn4Cc4ccccc43)cc2)CC(C)(C)C1 [Example 23, (10,11-Dihydro-5H-pyrrolo[2,1-c][1,4]benzodiazepin-10-yl)-[4-(3,3,5,5-tetramethyl-cyclohex-1-en-1-yl)-phenyl]-methanone]	142 to 143	7	–
Cc1cc(C(=O)N2Cc3cccn3Cc3ccccc32)ccc1C1=CCCCC1 [Example 2, (10,11-Dihydro-5H-pyrrolo[2,1-c][1,4]benzodiazepin-10-yl)-(4-cyclohex-1-en-1-yl-3-methyl-phenyl)-methanone]	182 to 183	96	–
Cc1cc(C(=O)N2Cc3cccn3Cc3ccccc32)ccc1C1=CCCCC1(C)C [Example 30, (10,11-Dihydro-5H-pyrrolo[2,1-c][1,4]benzodiazepin-10-yl)-[4-(6,6-dimethyl-cyclohex-1-en-1-yl)-3-methyl-phenyl]-methanone]	131	67	–
CC1=C(c2ccc(C(=O)N3Cc4cccn4Cc4ccccc43)cc2)C(C)CCC1 (stereo not drawn) [Example 19, (10,11-Dihydro-5H-pyrrolo[2,1-c][1,4]benzodiazepin-10-yl)-[4-(2,6-dimethyl-cyclohex-1-en-1-yl)-phenyl]-methanone]	153 to 154	47	–
CO[C@@H]1CCCC(c2ccc(C(=O)N3Cc4cccn4Cc4ccccc43)cc2C)=C1C [Example 44, 10-{4-[(3R)-3-Methoxy-2-methylcyclohex-1-en-1-yl]-3-methylbenzoyl}-10,11-dihydro-5H-pyrrolo[2,1-c][1,4]benzodiazepine]	127 to 128	96	–
O=C(c1ccc(C2=CCCCC2)cc1)N1Cc2cccn2Cc2ccccc21 [Example 15, (10,11-Dihydro-5H-pyrrolo[2,1-c][1,4]benzodiazepin-10-yl)-(4-cyclohex-1-en-1-yl-phenyl)-methanone]	156	–	0.0489
CC1=C(c2ccc(C(=O)N3Cc4cccn4Cc4ccccc43)cc2C)C(C)CCC1 (stereo not drawn) [Example 33, (10,11-Dihydro-5H-pyrrolo[2,1-c][1,4]benzodiazepin-10-yl)-[4-(2,6-dimethyl-cyclohex-1-en-1-yl)-3-methyl-phenyl]-methanone]	133 to 135	56	–
O=C(c1ccc(C2=CCCc3ccccc32)cc1)N1Cc2cccn2Cc2ccccc21 [Example 18, (10,11-Dihydro-5H-pyrrolo[2,1-c][1,4]benzodiazepin-10-yl)-[4-(3,4-dihydro-naphthalen-1-yl)-phenyl]-methanone]	166	80	–
Cc1cc(C(=O)N2Cc3cccn3Cc3ccccc32)ccc1C1=CCCCC1C(C)(C)C (stereo not drawn) [Example 34, (10,11-Dihydro-5H-pyrrolo[2,1-c][1,4]benzodiazepin-10-yl)-[4-(6-tert-butyl-cyclohex-1-en-1-yl)-3-methyl-phenyl]-methanone]	127 to 129	20	–
CC1(C)CCCC=C1c1ccc(C(=O)N2Cc3cccn3Cc3ccccc32)cc1 [Example 17, (10,11-Dihydro-5H-pyrrolo[2,1-c][1,4]benzodiazepin-10-yl)-[4-(6,6-dimethyl-cyclohex-1-en-1-yl)-phenyl]-methanone]	118	76	–
Cc1cc(C(=O)N2Cc3cccn3Cc3ccccc32)ccc1C1=CCCCC1C (stereo not drawn) [Example 29, (10,11-Dihydro-5H-pyrrolo[2,1-c][1,4]benzodiazepin-10-yl)-[3-methyl-4-(6-methyl-cyclohex-1-en-1-yl)-phenyl]-methanone]	132 to 133	81	–
COc1cccc(C2=C(c3ccc(C(=O)N4Cc5cccn5Cc5ccccc54)cc3C)CCCC2)c1 [Example 38, (10,11-Dihydro-5H-pyrrolo[2,1-c][1,4]benzodiazepin-10-yl)-{4-[2-(3-methoxy-phenyl)-cyclohex-1-en-1-yl]-3-methyl-phenyl}-methanone]	91 to 94	16	–
Cc1cc(C(=O)N2Cc3cccn3Cc3ccccc32)ccc1C1=CCC2CC1C2(C)C (stereo not drawn) [Example 36, (10,11-Dihydro-5H-pyrrolo[2,1-c][1,4]benzodiazepin-10-yl)-[4-(6,6-dimethyl-bicyclo[3.1.1]hept-2-en-2-yl)-3-methyl-phenyl]-methanone]	187	14	–
